Calls of active or inactive are those of the source. The rule behind the calls is not given here.

The values below come from ChEMBL document CHEMBL1151426, “Pharmacodynamics of doxycycline in a murine malaria model” (Antimicrob Agents Chemother, 2007).

Data set [1] relates to Plasmodium berghei. As to the kind of experiment: Antimalarial activity as parasitaemia against Plasmodium berghei ANKA infected Swiss mice (Mus musculus) at 30 mg/kg intraperitoneal single dose 64 hrs post infection (Rvb=2.5%+/-0.5%). The class given is functional.
Data set [2] has as its system Mus musculus. Put plainly: Toxicity in Plasmodium berghei ANKA infected Swiss mice (Mus musculus) assessed as median time for adverse effect at 30 mg/kg, intraperitoneally administered as single dose 64 hrs after infection measured after 24 hrs. In kind it is organism-based. To be noted: in vivo, ip. On the set-up: dose 30 mg/kg, route intraperitoneal.
Data set [3] has as its system Plasmodium berghei. As to the kind of experiment: Antimalarial activity as reduced parasitaemia after 24hrs against Plasmodium berghei ANKA infected Swiss mice (Mus musculus) at 30 mg/kg intraperitoneal single dose 64 hrs post infection. The class given is functional, organism-based. More on the design: dose 30 mg/kg.
The test system of data set [4] is Plasmodium berghei. Put plainly: Antimalarial activity as parasitaemia nadir after 24 hrs against Plasmodium berghei ANKA infected Swiss mice (Mus musculus) at 30 mg/kg intraperitoneal single dose 64 hrs post infection. The class given is functional.
In data set [5] the test system is Mus musculus. Put plainly: Toxicity in Plasmodium berghei ANKA infected Swiss mice (Mus musculus) assessed as adverse effect at 90 mg/kg, intraperitoneally administered at 1,12 and 24 hrs after 64 hrs postinfection. The class given is organism-based. More on the design: dose 90 mg/kg, route intraperitoneal. Particulars: in vivo, ip.
Data set [6] has as its system Plasmodium berghei. Put plainly: Antimalarial activity as parasitaemia nadir against Plasmodium berghei ANKA infected Swiss mice (Mus musculus) at 90 mg/kg intraperitoneal dose 65, 76 and 88 hrs post infection. In kind it is functional.
Data set [7] is described as follows: Half life in healthy mouse at 50 mg/kg. The class given is ADME, organism-based. To be noted: in vivo. On the set-up: dose 50 mg/kg.
Data set [8] can be described thus: Half life in Plasmodium falciparum infected human dosed every 24 hrs after 48 hrs of infection. To be noted: in vivo. The class given is ADME, organism-based.
A short description of data set [9]: Half life in Plasmodium falciparum infected human at 200 mg/day, perorally after 7 days. In kind it is ADME, organism-based. To be noted: in vivo, po.
Data set [10] concerns Mus musculus. As to the kind of experiment: Toxicity in Plasmodium berghei ANKA infected Swiss mice (Mus musculus) assessed as discomfort at 180 mg/kg, intraperitoneally administered as single dose 64 hrs after infection. To be noted: in vivo, ip. The class given is organism-based. On the set-up: dose 180 mg/kg, route intraperitoneal.
The test system of data set [11] is Mus musculus. As to the kind of experiment: Toxicity in Plasmodium berghei ANKA infected Swiss mice (Mus musculus) assessed as median time for adverse effect at 90 mg/kg, intraperitoneally administered at 1,12 and 24 hrs after 64 hrs postinfection. In kind it is organism-based. More on the design: dose 90 mg/kg, route intraperitoneal. Particulars: in vivo, ip.

The test system of data set [12] is Plasmodium berghei. Put plainly: Antimalarial activity as parasitaemia against Plasmodium berghei ANKA infected Swiss mice (Mus musculus) at 90 mg/kg intraperitoneal dose 65, 76 and 88 hrs post infection (Rvb=2.5%+/-0.5%). In kind it is functional.
Data set [13] deals with Plasmodium berghei. As to the kind of experiment: Antimalarial activity as reduced parasitaemia against Plasmodium berghei ANKA infected Swiss mice (Mus musculus) at 90 mg/kg intraperitoneal dose at 65, 76 and 88 hrs post infection. In kind it is functional, organism-based. More on the design: dose 90 mg/kg.
Data set [14] deals with Plasmodium berghei. As to the kind of experiment: Antimalarial activity as reduced parasitaemia against Plasmodium berghei ANKA infected Swiss mice (Mus musculus) up to 180 mg/kg intraperitoneal single dose 64 hrs post infection. In kind it is functional, organism-based. On the set-up: dose 180 mg/kg.

Take `C[C@H]1[C@@H](O)O[C@@H]2O[C@@]3(C)CC[C@H]4[C@H](C)CC[C@@H]1[C@@]24OO3` [ARTENIMOL]: the Activity in [1] came out at 2.6%; in data set [2] it was 1 days; in data set [4], 0.53%. Moreover, the result in [3] was Active.

On to `C[C@H]1c2cccc(O)c2C(=O)C2=C(O)[C@]3(O)C(=O)C(C(N)=O)=C(O)[C@@H](N(C)C)[C@@H]3[C@@H](O)[C@@H]21.O` [DOXYCYCLINE], for which the Activity result in [5] is reported as “Non-toxic”; in data set [6], 0.06%; in [10] it was “Toxic”; in [12] it was 3%. The half-life – broadly, the time in which the quantity being followed falls by half – in data set [7] was 2.8 h; in data set [8], 10.5 h; in [9] it was 14 h. Further, in [11], the Time turned out to be 6 days. Further, the result in data set [13] was Active. Further, the result in [14] was inactive.
